Substitutions are numbered along the chain they refer to.
Tests used:
[1] = biological target: KIF13B T192Y-MD-NC-CC1 mutant (rat); test: crystal structure; crystals of the KIF13B T192Y-MD-NC-CC1 mutant (~25 mg/ml), 0.1 M Bis-Tris propane pH 8.2, 30% PEG 20000, sitting drop, 16°C; one molecule in the asymmetric unit, dimer formed by a crystallographic two-fold symmetry axis
[2] = biological target: T1, UNC-104 (MD-NC-CC1, residue 1-446) (Caenorhabditis elegans, UniProt P23678, C184Y); test: microtubule-stimulated ATPase assay; format: biochemical; conditions: microtubules present
T1 construct: MD-NC-CC1 fragment, residues 1-446, bacterial expression
T1 sequence (P23678 1-446 C184Y): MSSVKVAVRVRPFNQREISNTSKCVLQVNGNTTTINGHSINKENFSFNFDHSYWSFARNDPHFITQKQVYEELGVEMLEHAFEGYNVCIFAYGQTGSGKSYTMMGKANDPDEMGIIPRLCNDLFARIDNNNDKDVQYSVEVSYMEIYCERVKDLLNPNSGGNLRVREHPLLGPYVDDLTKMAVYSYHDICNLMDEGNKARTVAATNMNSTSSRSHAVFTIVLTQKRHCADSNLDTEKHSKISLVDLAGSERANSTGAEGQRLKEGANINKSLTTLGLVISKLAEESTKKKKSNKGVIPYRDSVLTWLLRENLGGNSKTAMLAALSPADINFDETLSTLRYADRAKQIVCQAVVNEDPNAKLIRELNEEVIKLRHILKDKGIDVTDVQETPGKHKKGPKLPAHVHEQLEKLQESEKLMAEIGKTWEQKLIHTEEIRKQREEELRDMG

[3] = biological target: T2, UNC-104 (MD-NC-CC1, residue 1-446) (Caenorhabditis elegans, UniProt P23678); test: microtubule-stimulated ATPase assay; format: biochemical; conditions: microtubules present
T2 construct: MD-NC-CC1 fragment, residues 1-446, bacterial expression
T2 sequence (P23678 1-446): T1 sequence (P23678 1-446 C184Y) with Y184C

[4] = biological target: T3, KIF13B MD-NC-CC1 (Rattus norvegicus, UniProt A0A0G2K8Z9); test: microtubule-stimulated ATPase, malachite green phosphate endpoint assay; format: biochemical; conditions: microtubules present; autoinhibited wild type
T3 construct: MD-NC-CC1 fragment (motor domain, neck coil, CC1)
T3 sequence (A0A0G2K8Z9 48-490 limits assumed): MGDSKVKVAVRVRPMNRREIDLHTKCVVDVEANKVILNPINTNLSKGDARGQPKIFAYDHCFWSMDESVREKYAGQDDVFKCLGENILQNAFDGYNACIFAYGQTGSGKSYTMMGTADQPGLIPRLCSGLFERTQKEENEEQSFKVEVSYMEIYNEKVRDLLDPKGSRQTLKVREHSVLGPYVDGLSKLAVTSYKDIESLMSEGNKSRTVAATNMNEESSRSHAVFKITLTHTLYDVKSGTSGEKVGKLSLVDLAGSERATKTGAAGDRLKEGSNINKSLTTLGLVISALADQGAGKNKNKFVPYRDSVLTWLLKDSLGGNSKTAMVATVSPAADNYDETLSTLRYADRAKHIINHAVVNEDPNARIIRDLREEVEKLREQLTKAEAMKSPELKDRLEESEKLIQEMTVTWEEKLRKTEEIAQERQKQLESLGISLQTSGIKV

[5] = biological target: T4, KIF13B MD-NC-CC1 (Rattus norvegicus, UniProt A0A0G2K8Z9, , form not given); test: as above; format: biochemical; conditions: microtubules present
T4 construct: MD-NC-CC1 fragment (motor domain, neck coil, CC1)
T4 sequence (A0A0G2K8Z9 48-490 T239Y limits assumed): T3 sequence (A0A0G2K8Z9 48-490 limits assumed) with T192Y

Row | Compound | stoichiometry N [1] | microtubule-stimulated ATPase assay [2] | microtubule-stimulated ATPase assay [3] | microtubule-stimulated ATPase, malachite green phosphate endpoint assay [4] | microtubule-stimulated ATPase, malachite green phosphate endpoint assay [5]
1 | KIF13B T192Y-MD-NC-CC1 mutant (domain or fragment) | 2 |  |  |  | 
2 | Nc1ncnc2c1ncn2[C@@H]1O[C@H](COP(=O)(O)OP(=O)(O)OP(=O)(O)O)[C@@H](O)[C@H]1O [ATP] |  | the C184Y mutant undergo a significant enhancement in its ATPase activity | the MD-NC-CC1 fragment of UNC-104 shows the moderate MT-stimulated ATPase activity | Microtubule-stimulated ATPase activity of the KIF13B MD-NC-CC1 fragment | both the T192Y and L397F mutations significantly restored the ATPase activity of the MD-NC-CC1 fragment
